Structures can show the parent of a compound that is named as a salt.
Columns and labels:
primary astrocytes = test: Intracellular glycogen quantification, Example 2; format: cell-based, mouse; details: 10 μM, 3 h (GP-0157: 0.1, 1, 10 μM)
Protocol: To assess for the effect of the compounds of the invention, those were tested in primary astrocytes, as described below. Secretion of lactate was measured directly in the extracellular medium, and indirectly through the acidification of extracellular medium using extracellular pH sensor SNARE-5F-(AND-6)-CAR (SNARF5). Glucose uptake was measured by quantification 2-deoxyglucose in the cell. Cell Cultures Primary cultures of cerebrocortical astrocytes were obtained from 1 to 2-day-old OF1 mouse pups (Charles River). Briefly, cortices were isolated and minced in small pieces under a dissecting microscope. The cells were incubated for 30 min at 37° C. in a solution containing 20 U/ml papain, 1 mM L-cysteine and 10 kU/ml DNase I. After dissociation, papain activity was stopped by the addition of fetal calf serum (FCS). Single-cell suspension was then obtained by mechanical dissociation, which consisted in cells trituration in a DMEM D7777 medium supplemented with 44 mm NaHCO3, 10 ml/L antibiotic/antimycotic solution and 10% FCS. The cells were seeded at an average density of ˜10'000 cells/cm2 on poly-D-lysine coated 96- or 12-well culture plates, depending on their use, and grown in DMEM D7777 medium supplemented with 44 mm NaHCO3, 10 ml/L antibiotic/antimycotic solution and 10% FCS at 37° C. in a humidified atmosphere containing 5% CO2/95% air. Culture medium was renewed twice a week. Cells were stimulated and harvested between DIV14 and DIV17, when confluence and cell growth were optimal. Extracellular Medium Acidification (SNARF5) Secretion of lactate was measured indirectly through the acidification of extracellular medium using extracellular pH sensor […] (SNARF5). After washing cells twice with stimulation medium (DMEM (D5030, Sigma), 1 mM NaHCO2, and 5 mM Glucose, pH 7.4) at 37° C., cells were stimulated with compounds at a final concentration ranging from 10 nM to 30 μM in 50 μl per well of stimulation medium supplemented with 10 μM of SNARF5 (Life Technologies Corporation). Each compound was tested in two different plates for duplicates. After 90 min stimulation, fluorescence was read at exc. (excitation) 480 nm/emm. (emission) 580 nm and at exc 480 nm/emm. 630 nm. The ratio of fluorescence between 630 nm and 580 emission values, which is proportional to extracellular pH, was calculated. In each plate, 8 wells were used for negative controls (DMSO 0.1%) and 8 wells were used for positive controls (CCCP 2 μM in DMSO). The extracellular medium acidification in primary mouse astrocytes treated with GP-A1 was quantified (FIG. 13). Extracellular medium acidification was measured over a period of 1.5 h and 3 h. […] Extracellular Lactate Quantification Secretion of L-lactate was measured in the extracellular medium of 96-well plated astrocytes after 90 min stimulation (at 37° C., in 5% CO2/95% air conditions) with Vehicle (DMSO), the compounds of the invention (100 nM to 100 μM) or positive control. […] Stimulation medium was composed of D5030 medium complemented with 5 mM D-glucose and 44 mM sodium bicarbonate, pH 7.2. To quantify lactate concentrations in the extracellular medium, 200 μl of a 0.2M Glycine-semicarbazide buffer (pH 10) containing 3 mM NAD and 14 U/ml LDH was added to each well of a 96-well plate containing 30 μl aliquots of extracellular medium. Samples were incubated at 37° C. for 1 h. Fluorescence intensity (340 nm excitation/450 nm emission), which represents the amount of NADH produced, was measured, and lactate concentration values were determined relative to a standard curve of L-lactate concentrations. The release of lactate from primary mouse astrocytes treated with GP-A1 was quantified (FIG. 5A and FIG. 14). Accumulation of lactate in the extracellular medium was measured over a period of 1.5 h. […] Intracellular Glycogen Quantification Astrocytes grown on 12-well plates were used for intracellular glycogen quantifications. […]

astrocytes [1] = test: Intracellular glycogen quantification; format: cell-based, mouse; details: CDC54K hits; 10 uM, 3 h
astrocytes [2] = test: Intracellular glycogen quantification; format: cell-based, mouse; details: Prestwick hits; 10 uM, 3 h
Protocol: For glycogen dosage, a protein dosage was first performed in order to assess whether harvested astrocytes from primary cell cultures yielded enough and equivalent amounts of proteins comparing each replicate, and to ensure that the obtained differences in glycogen quantities were due to drug action and not to inner protein quantities.
Astrocytes used for these dosages were previously grown in 6-well plates for 17 days and stimulated with Vehicle (DMSO) or drug of interest (1 μM to 100 μM) for 180 min, at 37° C. 5% CO2/95% air in D5030 complete medium. Medium was removed and replaced with 600 μl of 30 mM Tris HCl, and stored at −20° C.
Proteins were dosed using the micro BCA Protein Assay kit (Thermo Scientific), as described in the manufacturer's instructions. Briefly, thawed cells were sonicated and 5 μl aliquots were placed in a transparent 96-well plate, to which we added 25 μl 30 mM Tris HCl, 70 μl H2O and 100 μl of a BCA mix (made as described in manufacturer's guidelines). After a 120 min-incubation at 37° C., absorbance was measured with Safire 2 spectrophotometer at a wavelength of 562 nm, and protein quantities were determined from a standard curve of Bovine Serum Albumin (BSA).
Glycogen was quantified using a 250 μl-aliquot of the same stimulated, thawed, and sonicated cells. After an incubation period of 30 min at 90° C. and 400 rpm, 28 μl of an acetic acid/sodium acetate (both from Sigma) 0.1M pH 4.6 buffer was added to each aliquot, which was then separated in two. Each split aliquot received whether 5 μl of amyloglucosidase (Roche) or 5 μl H2O, and all cell solutions were incubated for 120 min in a shaking 37° C.-waterbath. After a centrifugation at 16'000 G for 5 min, 20 μl of supernatant were placed 96-well plate, to which 150 μl of a mix containing 0.67 mM ATP (Roche), 0.67 mM NADP (Roche), 1.8% hexokinase/glucose-6-phosphate dehydrogenase (Roche) and 0.1M Tris Buffer-HCl/3.3 mM magnesium (Fluka)/pH 8.1 buffer was added. Fluorescence was measured with Safire 2 spectrophotometer (340 nm excitation/440 nm emission). Glycogen concentration was obtained by subtracting glucose value of samples with amyloglucosidase to samples without amyloglucosidase, and were expressed relative to the amount of proteins previously determined.
Levels of intracellular glycogen in astrocytes were measured at 3 h after stimulation with 20 hits from the Prestwick library (10 μM each), as shown in FIG. 2. n=6-10; Ctrl pos. is glutamate (0.5 mM). Statistical analysis consisted in ANOVA followed by Fisher LSD post-hoc test for pair-wise comparisons.
Statistical analysis consisted in ANOVA followed by Fisher LSD post-hoc test for pair-wise comparisons.

cerebral glycogen = test: In vivo pharmacodynamics: glycogen levels in prefrontal cortex; design: species or system mouse; details: 10 mg/kg
Excerpt: To measure intracerebral levels of glycogen, mice were euthanized at different time points after drug administration, using a microwave beam (1 sec, 6 kW) focused directly on mice brains. This method of fixation results in the rapid inhibition of enzymatic reactions, thereby preserving intact metabolic state in the brain of euthanized animals. Glycogen concentration was quantified using standard biochemical procedure. Groups of 8 male mice were used for each condition.
Glycogen levels were measured in microwave-fixed PFC (prefrontal cortex, 6 kW, 1 sec), which ensures enzymatic inhibition and stops glycogen degradation. Samples were then flash frozen before dosage.
First, glycogen levels were analyzed at 1 h, 3 h and 6 h after drug administration. […] This time point was subsequently used for dose-response experiments. Glycogen levels were quantified at 3H after administration with GP-01 to GP-07 at 1, 10 or 100 mg/kg.

C57Bl/6 female mice = details: 100 mg/kg single per os, 14 days monitoring
Protocol: The compound was administered at 10 mg/kg.
In vivo acute toxicity was assessed with a starting maximal concentration of 100 mg/kg. […] Groups of 6-8 female mice were monitored for 14 days after single oral administration of the drug, weighted every day, and a macroscopic histological examination was performed at the end of the experiment. Clinical evaluation included the observation of mice' ability to feed, hydrate, notification of any visible pain, unusual grooming or respiration, blood loss, evidence of microbial infection, and/or significant loss of weight.
For this period, mice were weighted and clinically monitored (feeding, hydration, pain, grooming, respiration, blood loss, microbial infection). At the end of the 14-day evaluation, mice were sacrificed and high level organ analysis was performed. Drugs were always administered per os (gavage) in solution composed of Methocel 4KM 0.4%, Tween 0.25%.

[3] = tested on: C57Bl/6 male and female mice; test: Anxiety in elevated plus maze (EPM) after chronic treatment; format: in vivo, mouse; details: end of 28-day chronic treatment, 10 mg/kg
Protocol: Total distance, frequency of entry and duration in the open arms were measured using Ethovision automatic scoring; n>10;

[4] = tested on: cerebral extracellular lactate; test: In vivo pharmacodynamics: lactate biosensors in cortex; design: species or system mouse; details: 10 mg/kg per os
Protocol: Extracellular levels of lactate were monitored in vivo using lactate biosensors (Pinnacle Technology), according to the manufacturer's instructions. Cannulae were surgically implanted in mice cerebral cerebral motor cortex areas M1/M2 (coordinates: +1.94 mm (to bregma), lateral −1.4 mm (to mideline), ventral −1.0 mm (to dura)) 5-7 days before administration of the compounds. Drugs were administered per os as previously described, and cerebral levels of extracellular lactate were dynamically recorded for 6 hours. Mice were administered vehicle alone first, followed 3 hours later by vehicle or drug (10 or 100 mg/kg). Area Under the Curve (AUC) quantifying the fluctuations of extracellular lactate concentrations for each of the compound tested was calculated using Graphad Prism and the ratio of AUC after drug over Vehicle administration was calculated. Groups of 8 male mice were used for each condition.
To measure biological effect of lead molecules in vivo in the brain, lactate levels were quantified after administration of the drug by using lactate biosensors implanted in the cortex of freely moving mice.

[5] = tested on: C57Bl/6 male and female mice; test: In vivo chronic toxicity (28 days); details: chronic administration 10 mg/kg; treatment interrupted
Protocol: During this period, clinical symptoms and weight were recorded.
Chronic toxicity was assessed.

## O=S(=O)(Nc1cc(F)cc(F)c1)c1ccc2ccccc2c1 [T5884038]
Primary astrocytes
  mobilization of intracellular glycogen: significantly enhance the mobilization of intracellular glycogen
Astrocytes [1]
  Glycogen (statistical significance of glycogen degradation): **** (****p<0.0001)

## [H]/N=C(\N/C(=N/[H])Nc1ccc(Cl)cc1)NC(C)C [Proguanil hydrochloride]
Astrocytes [2]
  Glycogen (statistical significance of glycogen degradation): *** (***p<0.001)
Cerebral glycogen
  PD effect: did not show good PD effect
C57Bl/6 female mice
  acute toxicity (toxic or not): toxic

## C#C[C@]1(O)CC[C@H]2[C@@H]3[C@H](C)CC4=C(CCC(=O)C4)[C@H]3CC[C@@]21C [Tibolone]
[3]
  anxiety in EPM: increased anxiety
[4]
  cerebral lactate (AUC ratio vs vehicle): Significant increase
[5]
  weight loss: > 20%
Astrocytes [2]
  Glycogen (statistical significance of glycogen degradation): *** (***p<0.001)
